Like-named read-outs stand apart in the source and are kept apart here.
Experiments:
[1] = Protonation constants of ligands by pH-potentiometry; type: physicochemical; details: 25°C, I = 0.15 M NaCl
Source text: For determining the protonation constants of DOTPI(Chx)4 and DOTPI three parallel pH-potentiometric titration were made with 0.2 M NaOH in 0.002 M ligand solutions. The stability and protonation constants of the Ca^II and Zn^II complexes formed with DOTPI(Chx)4 and DOTPI ligands have been determined by direct pH-potentiometric titration made at 1:1 and 2:1 metal to ligand concentration ratios. (the concentration of ligands was 0.002 M). For the calculation of the logKML and logKMLHi values, the mL base—pH data used were obtained in the pH range 1.7–12.0.
For pH measurements and titrations, a Metrohm 785 DMP Titrino titration workstation and a Metrohm-6.0233.100 combined electrode were used. Equilibrium measurements were carried out at a constant ionic strength (0.15 M NaCl) in 6 mL samples at 25°C. The solutions were stirred, and constantly purged with N2. The titrations were performed in a pH range of 1.7–11.7. KH-phthalate (pH = 4.005) and borax (pH = 9.177) buffers were used to calibrate the pH meter. For calculation of [H^+] from measured pH values, the method proposed by Irving et al. was used (Irving et al., [1967]). A 0.01 M HCl solution was titrated with the standardized NaOH solution in the presence of 0.1 M NaCl. Differences between the measured (pHread) and calculated pH (–log[H^+]) values were used to obtain the equilibrium H^+ concentration from the pH values, measured in the titration experiments. For the equilibrium calculations, the stoichiometric water ionic product (pKw) is also needed to calculate [H^+] values in basic conditions. The VNaOH – pHread data pairs of the HCl – NaOH titration obtained in the pH range 10.5–12 have been used to calculate the pKw value (pKw = 13.85). For the calculation of the equilibrium constants the program PSEQUAD (Zekany and Nagypal, [1985]) was used.
2. Protonation and complexation equilibria of DOTPI and
The protonation processes of the DOTPI and DOTPI(Chx)4, ligands have been studied by pH-potentiometry. The protonation constants (logKiH) of ligands are defined according to Eq. (1).
The stability and protonation constants of DOTPI and DOTPI(Chx)4 complexes with several metal ions were determined by pH-potentiometric and UV/Vis spectrophotometric, methods.
The stability and protonation constants of the metal complexes formed with the DOTPI and DOTPI(Chx)4, ligands, defined by Eqs. […]
where i = 1, 2, 3…5. The KML and KMHiL values characterizing the formation of DOTPI and DOTPI(Chx)4 complexes of CaII and ZnII have been calculated from the pH-potentiometric titration data obtained at 1:1 metal to ligand concentration ratios. The protonation constants of the complexes Cu(DOTPI) and Cu(DOTPI( Chx)4) were also determined by pH-potentiometric titrations, made at 1:1 metal to ligand concentration ratio. The pH-potentiometric titrations of DOTPI ligand were also performed at 2:1 metal-to-ligand ratio in order to examine the possible formation of dinuclear CaII-, ZnII-, and CuII-DOTPI complexes.
The stability and protonation constants of the dinuclear complexes formed with the DOTPI […]
where i=1 and 2. In calculating the equilibrium constants, the best fit of the mL base – pH data was obtained by assuming the formation of ML, MHL, MH 2L, MH3L, MH4L, MH5L, M2L, M2LH, and M2LH2 complexes with DOTPI and DOTPI(Chx)4.
(also on this page, place not known: ]H][LH[ ]LH[K 1i iH + − = DOTPI( Chx)4 f ormed ]L][M[ ]ML[K ML = ]H][LMH[ ]LMH[K 1i i LMHi + − = i 3 …5. Ca II Zn II -potentiometric pH - metal -to-ligand Cu II-DOTPI ]M][ML[ ]LM[K 2 LM2 = ]H][LHM[ ]LHM[K 1i2 i2 LHM i2 + − = pH MH 4L,) […]

[2] = 25°C, I = 0.1 M Me4NCl; ref Lázár et al., [1991]; cited from earlier work
[3] = 25°C, I = 0.1 M Me4NCl, ref Šimeček et al., [2013], cited from earlier work
[4] = distant carboxylate groups of DOTPI not considered

log K1H [1]: 10.27 (1)
log K2H [1]: 8.42 (1)
log K3H [1]: 5.45 (2)
log K4H [1]: 4.78 (2)
log K5H [1]: 4.42 (2)
log K6H [1]: 3.88 (2)
log K7H [1]: 2.83 (2)
log K8H [1]: 1.17 (2)
Σlog KiH (total basicity) [1, 4]: 22.69
Structure (SMILES): O=C(O)CCP(=O)(O)CN1CCN(CP(=O)(O)CCC(=O)O)CCN(CP(=O)(O)CCC(=O)O)CCN(CP(=O)(O)CCC(=O)O)CC1 [DOTPI, 1,4,7,10-tetraazacyclododecane-1,4,7,10-tetrakis[methylene(2-carboxyethylphosphinic acid)]]
logKML, CuL [2]: 23.11
Σlog KiH (total basicity) [3, 4]: 24.91
log K1H [3]: 11.58
log K2H [3]: 8.90
log K3H [3]: 5.65
log K4H [3]: 4.98
log K5H [3]: 4.61
log K6H [3]: 4.07
log K7H [3]: 3.12
log K8H [3]: 1.31
